Test results taken from patent US7566789B2, “Benzimidazole derivatives” (Merck Patent GmbH, priority 2002, dated 2009).

Assays:
factor Xa = factor Xa (Homo sapiens, UniProt P00742); assay: Inhibition of factor Xa (FXa-IC50); type: biochemical
Description: The inhibition of factor Xa by the compounds according to the invention and the measurement of the anticoagulant and antithrombotic activity can be determined by conventional in-vitro or in-vivo methods. A suitable method is described, for example, by J. Hauptmann et al. in Thrombosis and Haemostasis 1990, 63, 220-223.
The inhibition of factor Xa can be measured, for example by the method of T. Hara et al. in Thromb. Haemostas. 1994, 71, 314-319.

TF/FVIIa = TF/FVIIa (Homo sapiens, UniProt P08709); assay: Inhibition of TF/factor VIIa (TF/FVIIa-IC50); type: biochemical
Chain of TF/FVIIa (P08709 213-466 limits assumed): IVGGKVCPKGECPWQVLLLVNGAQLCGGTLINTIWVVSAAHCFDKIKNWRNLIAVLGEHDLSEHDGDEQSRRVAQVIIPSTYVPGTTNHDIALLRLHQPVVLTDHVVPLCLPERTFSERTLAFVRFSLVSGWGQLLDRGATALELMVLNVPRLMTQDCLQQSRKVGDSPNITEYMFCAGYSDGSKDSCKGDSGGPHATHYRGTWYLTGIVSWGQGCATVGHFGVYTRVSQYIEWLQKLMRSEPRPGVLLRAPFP
Chain of TF/FVIIa (P08709 61-212 limits assumed): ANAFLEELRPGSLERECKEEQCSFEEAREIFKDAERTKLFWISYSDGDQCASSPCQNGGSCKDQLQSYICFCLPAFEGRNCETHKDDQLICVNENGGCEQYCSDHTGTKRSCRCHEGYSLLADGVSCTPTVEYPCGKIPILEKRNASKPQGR
Chain of TF/FVIIa (P13726 33-295 partner): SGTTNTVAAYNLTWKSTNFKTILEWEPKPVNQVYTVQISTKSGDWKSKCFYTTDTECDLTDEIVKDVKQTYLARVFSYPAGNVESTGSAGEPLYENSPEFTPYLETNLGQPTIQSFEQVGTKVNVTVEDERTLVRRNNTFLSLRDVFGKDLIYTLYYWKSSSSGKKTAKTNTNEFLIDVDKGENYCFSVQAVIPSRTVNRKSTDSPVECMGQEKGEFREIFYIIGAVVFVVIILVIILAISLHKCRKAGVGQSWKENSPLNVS
Description: The inhibition of factor VIIa by the compounds according to the invention and the measurement of the anticoagulant and antithrombotic activity can be determined by conventional in-vitro or in-vivo methods. A conventional method for the measurement of the inhibition of factor VIIa is described, for example, by H. F. Ronning et al. in Thrombosis Research 1996, 84, 73-81.

Chain of factor Xa (P00742 235-488 limits assumed): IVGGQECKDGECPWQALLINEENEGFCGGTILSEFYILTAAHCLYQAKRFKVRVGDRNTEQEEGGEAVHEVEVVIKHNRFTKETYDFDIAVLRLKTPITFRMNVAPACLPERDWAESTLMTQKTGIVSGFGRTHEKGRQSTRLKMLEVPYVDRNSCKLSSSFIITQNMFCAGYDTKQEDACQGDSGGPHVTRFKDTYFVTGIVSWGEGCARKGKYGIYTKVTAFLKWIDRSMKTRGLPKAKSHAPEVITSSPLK
Chain of factor Xa (P00742 41-179 limits assumed): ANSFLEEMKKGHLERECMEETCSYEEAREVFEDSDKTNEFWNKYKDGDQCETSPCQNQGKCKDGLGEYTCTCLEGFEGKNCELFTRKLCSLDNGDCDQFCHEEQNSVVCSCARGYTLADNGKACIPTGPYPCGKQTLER

IC50 (factor Xa) | IC50 (TF/FVIIa) | melting point | SMILES
120 nM | 130 nM | – | Cc1cc(NC(=O)Cc2ccc3[nH]c(-c4ccc(Cl)s4)nc3c2)ccc1N1CCOCC1=O [AB, 2-[2-(5-chlorothiophen-2-yl)-1H-benzimidazol-5-yl]-N-[3-methyl-4-(3-oxomorpholin-4-yl)phenyl]acetamide]
180 nM | 130 nM | – | O=C(Cc1ccc2[nH]c(-c3ccc(Cl)s3)nc2c1)Nc1ccc(-n2ccccc2=O)cc1 [AC, 2-[2-(5-chlorothiophen-2-yl)-1H-benzimidazol-5-yl]-N-[4-(2-oxopyridin-1-yl)phenyl]acetamide]
230 nM | 190 nM | 200 °C (dec.) | O=C(Cc1ccc2[nH]c(-c3ccc(Cl)s3)nc2c1)Nc1ccc(N2CCOCC2=O)cc1 [AA, 2-[2-(5-chlorothiophen-2-yl)-1H-benzimidazol-5-yl]-N-[4-(3-oxomorpholin-4-yl)phenyl]acetamide]
